{
  "source": "paper PMC6704710",
  "about": "“Preclinical evaluation of 3D185, a novel potent inhibitor of FGFR1/2/3 and CSF-1R, in FGFR-dependent and macrophage-dominant cancer models” (Journal of Experimental & Clinical Cancer Research : CR, 2019)",
  "assay_in_all_cases": "Eurofins kinase panel",
  "assay_type_in_all_cases": "biochemical",
  "conditions_in_all_cases": "read-out: Inhibition rate (%)",
  "key": {"[1]": {"molecular_target": "T1, GRK1(h) (Homo sapiens, UniProt Q15835)", "T1 construct": "purchased Eurofins (KinaseProfiler)", "T1 sequence (Q15835 1-563)": "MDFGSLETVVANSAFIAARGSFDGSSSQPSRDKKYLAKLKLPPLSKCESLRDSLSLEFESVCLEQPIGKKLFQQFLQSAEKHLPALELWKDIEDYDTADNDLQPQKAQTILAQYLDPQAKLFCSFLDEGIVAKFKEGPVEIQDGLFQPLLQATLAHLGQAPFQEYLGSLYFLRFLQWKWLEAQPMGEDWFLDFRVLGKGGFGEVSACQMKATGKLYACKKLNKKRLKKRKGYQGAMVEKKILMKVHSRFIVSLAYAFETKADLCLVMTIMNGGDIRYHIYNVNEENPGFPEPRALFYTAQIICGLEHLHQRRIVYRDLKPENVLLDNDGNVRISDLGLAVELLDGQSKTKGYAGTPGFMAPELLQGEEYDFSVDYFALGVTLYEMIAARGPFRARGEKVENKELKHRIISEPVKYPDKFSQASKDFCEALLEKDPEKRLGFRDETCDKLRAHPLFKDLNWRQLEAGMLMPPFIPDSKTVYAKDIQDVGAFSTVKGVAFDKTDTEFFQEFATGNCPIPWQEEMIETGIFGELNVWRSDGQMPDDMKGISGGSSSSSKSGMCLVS"}, "[2]": {"molecular_target": "T2, STK33(h) (Homo sapiens, UniProt Q9BYT3)", "T2 construct": "purchased Eurofins (KinaseProfiler)", "T2 sequence (Q9BYT3 whole entry)": "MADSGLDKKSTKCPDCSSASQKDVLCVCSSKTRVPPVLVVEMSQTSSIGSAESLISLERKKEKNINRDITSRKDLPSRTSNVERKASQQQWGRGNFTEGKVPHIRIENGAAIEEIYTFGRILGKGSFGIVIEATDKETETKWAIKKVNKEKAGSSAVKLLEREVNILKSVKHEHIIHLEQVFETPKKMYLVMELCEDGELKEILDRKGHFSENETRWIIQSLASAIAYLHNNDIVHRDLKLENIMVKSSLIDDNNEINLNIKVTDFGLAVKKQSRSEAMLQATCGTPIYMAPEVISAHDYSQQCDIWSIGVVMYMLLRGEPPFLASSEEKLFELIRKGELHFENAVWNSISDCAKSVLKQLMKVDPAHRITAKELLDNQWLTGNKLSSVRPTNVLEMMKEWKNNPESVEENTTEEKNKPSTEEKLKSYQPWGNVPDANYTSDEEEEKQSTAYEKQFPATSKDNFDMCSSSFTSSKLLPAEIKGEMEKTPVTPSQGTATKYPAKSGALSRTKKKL"}, "[3]": {"molecular_target": "T3, DDR2(h) (Homo sapiens, UniProt Q16832)", "T3 construct": "purchased Eurofins (KinaseProfiler)", "T3 sequence (Q16832 22-855)": "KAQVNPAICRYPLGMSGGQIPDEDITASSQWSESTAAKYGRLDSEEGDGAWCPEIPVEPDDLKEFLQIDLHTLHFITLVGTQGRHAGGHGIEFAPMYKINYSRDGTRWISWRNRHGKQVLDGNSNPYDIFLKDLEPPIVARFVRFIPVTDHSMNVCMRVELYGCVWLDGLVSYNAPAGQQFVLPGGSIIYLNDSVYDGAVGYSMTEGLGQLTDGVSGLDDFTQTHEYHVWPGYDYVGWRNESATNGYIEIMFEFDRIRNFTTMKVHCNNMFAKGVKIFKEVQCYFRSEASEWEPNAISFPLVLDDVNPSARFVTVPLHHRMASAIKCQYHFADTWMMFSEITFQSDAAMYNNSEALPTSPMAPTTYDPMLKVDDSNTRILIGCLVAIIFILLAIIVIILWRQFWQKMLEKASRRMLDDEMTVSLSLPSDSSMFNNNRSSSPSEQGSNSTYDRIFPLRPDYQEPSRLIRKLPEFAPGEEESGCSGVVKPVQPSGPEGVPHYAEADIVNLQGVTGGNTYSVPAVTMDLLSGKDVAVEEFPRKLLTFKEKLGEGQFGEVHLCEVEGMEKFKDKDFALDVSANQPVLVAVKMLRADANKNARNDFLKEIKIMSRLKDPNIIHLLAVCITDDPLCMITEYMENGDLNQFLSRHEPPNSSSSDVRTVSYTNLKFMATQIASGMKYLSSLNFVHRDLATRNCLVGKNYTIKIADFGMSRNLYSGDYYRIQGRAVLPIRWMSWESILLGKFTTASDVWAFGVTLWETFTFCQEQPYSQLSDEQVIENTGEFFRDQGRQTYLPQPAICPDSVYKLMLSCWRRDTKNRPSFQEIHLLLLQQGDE"}, "[4]": {"molecular_target": "T4, PAK6(h) (Homo sapiens, UniProt Q9NQU5)", "T4 construct": "purchased Eurofins (KinaseProfiler)", "T4 sequence (Q9NQU5 whole entry)": "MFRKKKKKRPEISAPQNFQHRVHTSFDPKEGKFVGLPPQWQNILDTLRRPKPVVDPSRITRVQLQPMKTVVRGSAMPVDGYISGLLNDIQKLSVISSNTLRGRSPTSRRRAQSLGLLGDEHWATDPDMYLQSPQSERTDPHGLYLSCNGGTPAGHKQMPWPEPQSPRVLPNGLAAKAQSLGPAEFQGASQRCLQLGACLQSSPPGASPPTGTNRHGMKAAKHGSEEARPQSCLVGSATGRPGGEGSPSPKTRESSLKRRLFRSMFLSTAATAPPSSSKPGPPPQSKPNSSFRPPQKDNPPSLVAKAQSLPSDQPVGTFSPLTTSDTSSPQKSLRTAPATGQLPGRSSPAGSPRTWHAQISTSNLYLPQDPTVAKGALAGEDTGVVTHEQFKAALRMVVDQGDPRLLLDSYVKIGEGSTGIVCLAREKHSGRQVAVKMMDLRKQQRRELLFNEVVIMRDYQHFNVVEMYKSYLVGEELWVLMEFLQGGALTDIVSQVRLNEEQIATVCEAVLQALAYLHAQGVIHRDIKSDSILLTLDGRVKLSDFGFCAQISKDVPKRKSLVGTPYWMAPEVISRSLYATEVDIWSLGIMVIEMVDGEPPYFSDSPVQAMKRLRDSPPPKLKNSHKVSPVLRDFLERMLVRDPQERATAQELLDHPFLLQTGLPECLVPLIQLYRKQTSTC"}, "[5]": {"molecular_target": "T5, CDK4/cyclinD3(h) (Homo sapiens, UniProt P11802)", "T5 construct": "purchased Eurofins (KinaseProfiler)", "T5 sequence (P11802 whole entry)": "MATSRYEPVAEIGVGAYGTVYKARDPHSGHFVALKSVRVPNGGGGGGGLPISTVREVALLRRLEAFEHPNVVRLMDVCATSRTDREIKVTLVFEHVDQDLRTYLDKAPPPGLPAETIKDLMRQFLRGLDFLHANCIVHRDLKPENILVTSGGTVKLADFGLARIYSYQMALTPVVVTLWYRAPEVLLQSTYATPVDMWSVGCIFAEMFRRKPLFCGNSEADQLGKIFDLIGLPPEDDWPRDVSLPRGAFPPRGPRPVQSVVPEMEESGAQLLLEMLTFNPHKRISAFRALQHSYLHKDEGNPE", "T5 sequence (P30281 whole entry partner)": "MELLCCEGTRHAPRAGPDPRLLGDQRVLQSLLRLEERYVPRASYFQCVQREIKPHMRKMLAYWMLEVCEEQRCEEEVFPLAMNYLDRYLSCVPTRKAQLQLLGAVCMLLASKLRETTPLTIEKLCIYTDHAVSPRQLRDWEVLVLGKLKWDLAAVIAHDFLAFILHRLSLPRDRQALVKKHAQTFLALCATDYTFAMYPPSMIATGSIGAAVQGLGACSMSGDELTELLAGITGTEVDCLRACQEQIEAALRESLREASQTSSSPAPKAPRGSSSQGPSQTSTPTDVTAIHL"}, "[6]": {"molecular_target": "T6, IGF-1R(h) (Homo sapiens, UniProt P08069)", "T6 construct": "purchased Eurofins (KinaseProfiler)"}, "[7]": {"molecular_target": "T7, ALK6(h) (Homo sapiens, UniProt O00238)", "T7 construct": "purchased Eurofins (KinaseProfiler)", "T7 sequence (O00238 14-502)": "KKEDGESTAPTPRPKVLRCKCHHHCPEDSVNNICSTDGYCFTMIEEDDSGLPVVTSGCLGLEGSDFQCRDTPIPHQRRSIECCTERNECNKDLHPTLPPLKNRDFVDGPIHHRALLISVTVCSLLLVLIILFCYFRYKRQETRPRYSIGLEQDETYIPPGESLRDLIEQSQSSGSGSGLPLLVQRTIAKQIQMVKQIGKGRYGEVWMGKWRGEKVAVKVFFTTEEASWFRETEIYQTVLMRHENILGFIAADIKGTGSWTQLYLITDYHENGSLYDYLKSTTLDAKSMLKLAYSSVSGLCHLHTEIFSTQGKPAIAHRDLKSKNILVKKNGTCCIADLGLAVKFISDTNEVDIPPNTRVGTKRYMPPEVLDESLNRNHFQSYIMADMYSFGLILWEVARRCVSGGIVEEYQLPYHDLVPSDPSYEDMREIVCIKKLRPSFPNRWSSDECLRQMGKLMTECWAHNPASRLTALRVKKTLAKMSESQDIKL"}, "[8]": {"molecular_target": "T8, TLK2(h) (Homo sapiens, UniProt Q86UE8)", "T8 construct": "purchased Eurofins (KinaseProfiler)", "T8 sequence (Q86UE8 whole entry)": "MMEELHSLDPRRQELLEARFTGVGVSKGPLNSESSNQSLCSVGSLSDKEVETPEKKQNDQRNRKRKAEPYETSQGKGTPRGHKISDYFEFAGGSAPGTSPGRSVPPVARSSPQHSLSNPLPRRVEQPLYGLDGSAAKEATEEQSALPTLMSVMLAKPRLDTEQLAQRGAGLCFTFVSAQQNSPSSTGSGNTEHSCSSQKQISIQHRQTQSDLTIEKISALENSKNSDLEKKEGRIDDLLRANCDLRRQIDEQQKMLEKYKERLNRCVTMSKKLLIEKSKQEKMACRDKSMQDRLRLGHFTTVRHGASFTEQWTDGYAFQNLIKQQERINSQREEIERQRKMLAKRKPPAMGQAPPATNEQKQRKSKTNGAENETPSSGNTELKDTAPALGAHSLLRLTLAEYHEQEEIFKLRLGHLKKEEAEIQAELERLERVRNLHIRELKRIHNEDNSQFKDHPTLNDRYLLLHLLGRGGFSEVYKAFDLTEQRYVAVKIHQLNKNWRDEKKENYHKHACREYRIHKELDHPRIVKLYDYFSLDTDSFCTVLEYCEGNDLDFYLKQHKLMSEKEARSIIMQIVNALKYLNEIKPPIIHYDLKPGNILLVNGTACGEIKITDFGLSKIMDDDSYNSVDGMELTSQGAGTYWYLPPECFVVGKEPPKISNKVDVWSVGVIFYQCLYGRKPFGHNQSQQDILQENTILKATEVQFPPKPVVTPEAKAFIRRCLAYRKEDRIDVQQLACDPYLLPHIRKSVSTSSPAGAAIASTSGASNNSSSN"}, "[9]": {"molecular_target": "T9, ALK(h) (Homo sapiens, UniProt Q9UM73)", "T9 construct": "purchased Eurofins (KinaseProfiler)"}, "[10]": {"molecular_target": "T10, IRE1(h) (Homo sapiens, UniProt O75460)", "T10 construct": "purchased Eurofins (KinaseProfiler)", "T10 sequence (O75460 19-977)": "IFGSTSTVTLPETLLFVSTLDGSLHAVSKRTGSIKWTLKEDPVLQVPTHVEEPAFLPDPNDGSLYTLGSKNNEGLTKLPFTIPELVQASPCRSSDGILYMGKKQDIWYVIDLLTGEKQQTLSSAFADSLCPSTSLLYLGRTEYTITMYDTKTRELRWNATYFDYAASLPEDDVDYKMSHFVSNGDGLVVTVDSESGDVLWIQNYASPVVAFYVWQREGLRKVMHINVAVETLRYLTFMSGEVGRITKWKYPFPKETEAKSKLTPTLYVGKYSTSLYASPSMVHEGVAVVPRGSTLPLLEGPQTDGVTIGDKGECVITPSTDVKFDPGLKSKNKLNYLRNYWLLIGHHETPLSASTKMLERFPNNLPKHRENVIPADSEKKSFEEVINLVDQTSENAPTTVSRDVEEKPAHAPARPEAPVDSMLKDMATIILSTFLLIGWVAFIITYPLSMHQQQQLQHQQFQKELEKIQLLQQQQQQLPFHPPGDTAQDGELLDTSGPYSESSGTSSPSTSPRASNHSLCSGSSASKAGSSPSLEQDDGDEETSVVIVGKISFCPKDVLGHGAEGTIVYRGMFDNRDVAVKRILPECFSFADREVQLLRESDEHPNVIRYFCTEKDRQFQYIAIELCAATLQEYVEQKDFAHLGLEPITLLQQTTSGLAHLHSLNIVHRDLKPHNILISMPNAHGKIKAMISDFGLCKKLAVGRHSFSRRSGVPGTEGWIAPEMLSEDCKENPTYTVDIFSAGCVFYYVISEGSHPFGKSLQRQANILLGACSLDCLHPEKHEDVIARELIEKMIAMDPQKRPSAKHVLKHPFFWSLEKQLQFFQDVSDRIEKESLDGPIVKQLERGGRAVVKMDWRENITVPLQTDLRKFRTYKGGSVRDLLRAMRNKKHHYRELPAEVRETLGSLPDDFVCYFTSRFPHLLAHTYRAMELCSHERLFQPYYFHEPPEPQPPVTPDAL"}, "[11]": {"molecular_target": "T11, PAK3(h) (Homo sapiens, UniProt O75914)", "T11 construct": "purchased Eurofins (KinaseProfiler)", "T11 sequence (O75914 whole entry)": "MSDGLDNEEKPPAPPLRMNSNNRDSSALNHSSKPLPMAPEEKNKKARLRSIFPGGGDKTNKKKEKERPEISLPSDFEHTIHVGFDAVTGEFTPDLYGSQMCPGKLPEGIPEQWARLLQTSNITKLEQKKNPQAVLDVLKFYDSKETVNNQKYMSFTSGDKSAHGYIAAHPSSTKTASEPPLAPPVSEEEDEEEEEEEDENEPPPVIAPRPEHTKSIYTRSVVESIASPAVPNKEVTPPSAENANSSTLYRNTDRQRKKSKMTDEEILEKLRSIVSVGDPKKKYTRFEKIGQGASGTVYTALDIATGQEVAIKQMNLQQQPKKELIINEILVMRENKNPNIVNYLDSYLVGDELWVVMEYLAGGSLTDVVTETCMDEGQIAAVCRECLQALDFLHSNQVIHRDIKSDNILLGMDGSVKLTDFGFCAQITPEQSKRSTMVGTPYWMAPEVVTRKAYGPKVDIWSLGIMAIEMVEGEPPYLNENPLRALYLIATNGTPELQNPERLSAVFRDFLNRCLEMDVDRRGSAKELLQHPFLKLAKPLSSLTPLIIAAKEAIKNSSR"}, "[12]": {"molecular_target": "T12, SGK2(h) (Homo sapiens, UniProt Q9HBY8)", "T12 construct": "purchased Eurofins (KinaseProfiler)", "T12 sequence (Q9HBY8 1-367)": "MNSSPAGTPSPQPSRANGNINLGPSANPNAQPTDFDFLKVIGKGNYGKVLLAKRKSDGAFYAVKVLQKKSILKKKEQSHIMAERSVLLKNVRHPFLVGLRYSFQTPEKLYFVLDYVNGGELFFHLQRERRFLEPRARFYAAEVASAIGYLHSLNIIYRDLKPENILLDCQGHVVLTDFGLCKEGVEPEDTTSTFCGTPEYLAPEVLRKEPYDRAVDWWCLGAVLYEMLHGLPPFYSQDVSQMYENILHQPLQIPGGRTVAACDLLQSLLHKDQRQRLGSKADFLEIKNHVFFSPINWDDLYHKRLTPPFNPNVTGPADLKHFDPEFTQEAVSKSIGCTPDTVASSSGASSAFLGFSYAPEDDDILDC"}},
  "data": [
    {"smiles": "COc1cc(OC)c(Cl)c(-c2ccc3c(NC(=O)c4ccc(N5CCNC(C)(C)C5)cc4)n[nH]c3n2)c1Cl", "note": "[3D185]", "values": [
      {"measurement": "inhibition at 0.01 µM", "setting": "[1]; 10 nM", "value": -2, "unit": "%"},
      {"measurement": "inhibition at 0.1 µM", "setting": "[1]; 100 nM", "value": -5, "unit": "%"},
      {"measurement": "inhibition at 1 µM", "setting": "[1]; 1000 nM", "value": -7, "unit": "%"},
      {"measurement": "inhibition at 0.01 µM", "setting": "[2]; 10 nM", "value": 3, "unit": "%"},
      {"measurement": "inhibition at 0.1 µM", "setting": "[2]; 100 nM", "value": 9, "unit": "%"},
      {"measurement": "inhibition at 1 µM", "setting": "[2]; 1000 nM", "value": 13, "unit": "%"},
      {"measurement": "inhibition at 0.01 µM", "setting": "[3]; 10 nM", "value": 0, "unit": "%"},
      {"measurement": "inhibition at 0.1 µM", "setting": "[3]; 100 nM", "value": 7, "unit": "%"},
      {"measurement": "inhibition at 1 µM", "setting": "[3]; 1000 nM", "value": 54, "unit": "%"},
      {"measurement": "inhibition at 0.01 µM", "setting": "[4]; 10 nM", "value": -3, "unit": "%"},
      {"measurement": "inhibition at 0.1 µM", "setting": "[4]; 100 nM", "value": 12, "unit": "%"},
      {"measurement": "inhibition at 1 µM", "setting": "[4]; 1000 nM", "value": -4, "unit": "%"},
      {"measurement": "inhibition at 0.01 µM", "setting": "[5]; 10 nM", "value": 5, "unit": "%"},
      {"measurement": "inhibition at 0.1 µM", "setting": "[5]; 100 nM", "value": -4, "unit": "%"},
      {"measurement": "inhibition at 1 µM", "setting": "[5]; 1000 nM", "value": 11, "unit": "%"},
      {"measurement": "inhibition at 0.01 µM", "setting": "[6]; 10 nM", "value": -5, "unit": "%"},
      {"measurement": "inhibition at 0.1 µM", "setting": "[6]; 100 nM", "value": 54, "unit": "%"},
      {"measurement": "inhibition at 1 µM", "setting": "[6]; 1000 nM", "value": 88, "unit": "%"},
      {"measurement": "inhibition at 0.01 µM", "setting": "[7]; 10 nM", "value": 3, "unit": "%"},
      {"measurement": "inhibition at 0.1 µM", "setting": "[7]; 100 nM", "value": -11, "unit": "%"},
      {"measurement": "inhibition at 1 µM", "setting": "[7]; 1000 nM", "value": -5, "unit": "%"},
      {"measurement": "inhibition at 0.01 µM", "setting": "[8]; 10 nM", "value": 0, "unit": "%"},
      {"measurement": "inhibition at 0.1 µM", "setting": "[8]; 100 nM", "value": -1, "unit": "%"},
      {"measurement": "inhibition at 1 µM", "setting": "[8]; 1000 nM", "value": -1, "unit": "%"},
      {"measurement": "inhibition at 0.01 µM", "setting": "[9]; 10 nM", "value": -1, "unit": "%"},
      {"measurement": "inhibition at 0.1 µM", "setting": "[9]; 100 nM", "value": 35, "unit": "%"},
      {"measurement": "inhibition at 1 µM", "setting": "[9]; 1000 nM", "value": 82, "unit": "%"},
      {"measurement": "inhibition at 0.01 µM", "setting": "[10]; 10 nM", "value": -1, "unit": "%"},
      {"measurement": "inhibition at 0.1 µM", "setting": "[10]; 100 nM", "value": -13, "unit": "%"},
      {"measurement": "inhibition at 1 µM", "setting": "[10]; 1000 nM", "value": 6, "unit": "%"},
      {"measurement": "inhibition at 0.01 µM", "setting": "[11]; 10 nM", "value": -1, "unit": "%"},
      {"measurement": "inhibition at 0.1 µM", "setting": "[11]; 100 nM", "value": -3, "unit": "%"},
      {"measurement": "inhibition at 1 µM", "setting": "[11]; 1000 nM", "value": 7, "unit": "%"},
      {"measurement": "inhibition at 0.01 µM", "setting": "[12]; 10 nM", "value": 4, "unit": "%"},
      {"measurement": "inhibition at 0.1 µM", "setting": "[12]; 100 nM", "value": 1, "unit": "%"},
      {"measurement": "inhibition at 1 µM", "setting": "[12]; 1000 nM", "value": 26, "unit": "%"}
    ]}
  ]
}
